Publication PMC8297476 (Biochemistry, 2021)

Experiments:
[1] = target: T1, adenylate kinase (AdK) (Escherichia coli, UniProt P69441); test: isothermal titration calorimetry; assay type: binding
[2] = target: T1, adenylate kinase (AdK); test: steady-state enzyme kinetics; assay type: biochemical; settings: cited from earlier work

T1 sequence (P69441 whole entry): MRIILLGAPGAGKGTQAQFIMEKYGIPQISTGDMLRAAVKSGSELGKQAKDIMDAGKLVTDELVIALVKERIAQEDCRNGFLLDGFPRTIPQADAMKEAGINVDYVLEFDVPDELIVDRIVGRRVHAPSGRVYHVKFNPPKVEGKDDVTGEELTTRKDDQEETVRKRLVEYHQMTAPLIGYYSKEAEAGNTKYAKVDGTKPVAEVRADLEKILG

SMILES	Kd [1]	Km [2]
Nc1ncnc2c1ncn2[C@@H]1O[C@H](COP(=O)(O)OP(=O)(O)O)[C@@H](O)[C@H]1O [ADP]	9 µM	–
Nc1ncnc2c1ncn2[C@@H]1O[C@H](COP(=O)(O)OP(=O)(O)OP(=O)(O)O)[C@@H](O)[C@H]1O [ATP]	–	71 µM
